Several values for one entry are separate records, joined by “and”; a condition that tells them apart may be missing. Identical values can stand only once. Square brackets hold non-standard residues; d marks the D form. Peptide text beside a SMILES is read from it. Ava = NCCCCC(=O)O
Key:
Type in all cases: cell-based
[1] = tested on: HIV-1 NL 4-3; assay: HIV-1 infection of C8166 cells (syncytia formation, p24 ELISA) with HIV-1 NL 4-3; set-up: key: ++, +, (+), (+)− and − represent decreasing numbers of syncitia formed; ++, +, (+), (+)− and − represent decreasing numbers of syncitia formed; ++, +, (+), (+)− and − represent decreasing numbers of syncitia formed; ++, +, (+), (+)− and − represent decreasing numbers of syncitia formed; ++, +, (+), (+)− and − represent decreasing numbers of syncitia formed; conditions: Table 6
Method in brief: (§1)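 C8166 T-cells were preincubated with peptide for 1 h at 37 °C, then exposed for 1 h to HIV-1 at 1000 TCID50/ml, washed, and cultured with peptide kept present throughout, with medium replaced at day 4. Infection was scored by syncytia formation and by supernatant p24 ELISA, with at least two runs in duplicate.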

[2] = tested on: HIV-1 NL 4-3; assay: as above; set-up: key to syncitia formed, Day 4 / syncitia formed, Day 5 / syncitia formed, Day 6 / syncitia formed, Day 7: ++, +, (+), (+)− and − represent decreasing numbers of syncitia formed; ++, +, (+), (+)− and − represent decreasing numbers of syncitia formed; ++, +, (+), (+)− and − represent decreasing numbers of syncitia formed; ++, +, (+), (+)− and − represent decreasing numbers of syncitia formed; ++, +, (+), (+)− and − represent decreasing numbers of syncitia formed
Method in brief: as §1

[3] = tested on: HIV-1 NDK; assay: HIV-1 infection of C8166 cells (syncytia formation, p24 ELISA) with HIV-1 NDK; set-up: key to syncitia formed, Day 4 / syncitia formed, Day 5 / syncitia formed, Day 6 / syncitia formed, Day 7: ++, +, (+), (+)− and − represent decreasing numbers of syncitia formed; ++, +, (+), (+)− and − represent decreasing numbers of syncitia formed; ++, +, (+), (+)− and − represent decreasing numbers of syncitia formed; ++, +, (+), (+)− and − represent decreasing numbers of syncitia formed; ++, +, (+), (+)− and − represent decreasing numbers of syncitia formed; conditions: for P 24: P 24 after Day 7
Method in brief: as §1

SMILES: C[C@H](NC(=O)[C@H](CCCNC(=N)N)NC(=O)CNC(=O)[C@@H]1CCCN1C(=O)CN)C(=O)NCCCCC(=O)O [GPGRA valeric acid, GPGRA-NHCH2CH2CH2CH2COOH] (H-GPGRA[Ava]-OH; N-terminus assumed)
- Day 4 syncitia formed ([1]; 0.005 μM): −
- Day 5 syncitia formed ([1]; 0.005 μM): +
- Day 6 syncitia formed ([1]; 0.005 μM): ++
- Day 4 syncitia formed ([1]; 0.01 μM): −
- Day 5 syncitia formed ([1]; 0.01 μM): +
- Day 6 syncitia formed ([1]; 0.01 μM): ++
- Day 7 syncitia formed ([1]; 0.01 μM): ++
- Day 4 syncitia formed ([1]; 0.05 μM): −
- Day 5 syncitia formed ([1]; 0.05 μM): (+)
- Day 6 syncitia formed ([1]; 0.05 μM): +
- Day 7 syncitia formed ([1]; 0.05 μM): +
- Day 4 syncitia formed ([1]; 0.1 μM): −
- Day 5 syncitia formed ([1]; 0.1 μM): (+)
- Day 6 syncitia formed ([1]; 0.1 μM): +
- Day 7 syncitia formed ([1]; 0.1 μM): +
- Day 4 syncitia formed ([1]; 0.5 μM): −
- Day 5 syncitia formed ([1]; 0.5 μM): −
- Day 6 syncitia formed ([1]; 0.5 μM): −
- Day 7 syncitia formed ([1]; 0.5 μM): −
- Day 4 syncitia formed ([1]; 1 μM): −
- Day 5 syncitia formed ([1]; 1 μM): −
- Day 6 syncitia formed ([1]; 1 μM): −
- Day 7 syncitia formed ([1]; 1 μM): −
- Day 4 syncitia formed ([1]; 5 μM): −
- Day 5 syncitia formed ([1]; 5 μM): −
- Day 6 syncitia formed ([1]; 5 μM): −
- Day 7 syncitia formed ([1]; 5 μM): −
- Day 7 syncitia formed ([2]; 0.005 μM, Table 6): ++/T
- syncitia formed, Day 4 ([2]; 0.01 μM, C8166 cells): −
- syncitia formed, Day 5 ([2]; 0.01 μM, C8166 cells): +
- syncitia formed, Day 6 ([2]; 0.01 μM, C8166 cells): ++
- syncitia formed, Day 7 ([2]; 0.01 μM, Day 7, C8166 cells): ++
- P 24 ([2]; 0.01 μM, P 24 after Day 7, C8166 cells): 13870 pg/mL and 11810 pg/mL
- syncitia formed, Day 4 ([2]; 0.05 μM, C8166 cells): −
- syncitia formed, Day 5 ([2]; 0.05 μM, C8166 cells): (+)
- syncitia formed, Day 6 ([2]; 0.05 μM, C8166 cells): +
- syncitia formed, Day 7 ([2]; 0.05 μM, Day 7, C8166 cells): +
- syncitia formed, Day 4 ([2]; 0.1 μM, C8166 cells): −
- syncitia formed, Day 5 ([2]; 0.1 μM, C8166 cells): −
- syncitia formed, Day 6 ([2]; 0.1 μM, C8166 cells): (+)
- syncitia formed, Day 7 ([2]; 0.1 μM, Day 7, C8166 cells): +
- P 24 ([2]; 0.1 μM, P 24 after Day 7, C8166 cells): 2356 pg/mL and 2416 pg/mL
- syncitia formed, Day 4 ([2]; 0.5 μM, C8166 cells): −
- syncitia formed, Day 5 ([2]; 0.5 μM, C8166 cells): −
- syncitia formed, Day 6 ([2]; 0.5 μM, C8166 cells): −
- syncitia formed, Day 7 ([2]; 0.5 μM, Day 7, C8166 cells): (+)
- syncitia formed, Day 4 ([2]; 1 μM, C8166 cells): −
- syncitia formed, Day 5 ([2]; 1 μM, C8166 cells): −
- syncitia formed, Day 6 ([2]; 1 μM, C8166 cells): −
- syncitia formed, Day 7 ([2]; 1 μM, Day 7, C8166 cells): −
- P 24 ([2]; 1 μM, P 24 after Day 7, C8166 cells): 13 pg/mL and 10 pg/mL
- syncitia formed, Day 4 ([2]; 5 μM, C8166 cells): −
- syncitia formed, Day 5 ([2]; 5 μM, C8166 cells): −
- syncitia formed, Day 6 ([2]; 5 μM, C8166 cells): −
- syncitia formed, Day 7 ([2]; 5 μM, Day 7, C8166 cells): −
- P 24 ([2]; 5 μM, P 24 after Day 7, C8166 cells): 2.7 pg/mL and 3 pg/mL
- IC50 ([2]; C8166 cells, HIV-1 subtype B NL 4-3, Table 9, two lines = tested twice, 8 days apart): 10 nM
- P 24 ([2]; Day 7, 0.005 μM, Table 6): 23810 pg/mL
- P 24 ([2]; Day 7, 0.01 μM, Table 6): 13030 pg/mL and 13810 pg/mL
- P 24 ([2]; Day 7, 0.05 μM, Table 6): 6830 pg/mL and 3820 pg/mL
- P 24 ([2]; Day 7, 0.5 μM, Table 6): 2 pg/mL and 2.2 pg/mL
- P 24 ([2]; Day 7, 1 μM, Table 6): 2.3 pg/mL and 1.9 pg/mL
- P 24 ([2]; Day 7, 5 μM, Table 6): 2.7 pg/mL and 1.8 pg/mL
- syncitia formed, Day 4 ([3]; 0.005 μM): (+)
- syncitia formed, Day 5 ([3]; 0.005 μM): +
- syncitia formed, Day 6 ([3]; 0.005 μM): ++
- syncitia formed, Day 7 ([3]; 0.005 μM): ++
- P 24 ([3]; 0.005 μM): 23810 pg/mL
- syncitia formed, Day 4 ([3]; 0.01 μM): −
- syncitia formed, Day 5 ([3]; 0.01 μM): +
- syncitia formed, Day 6 ([3]; 0.01 μM): ++
- syncitia formed, Day 7 ([3]; 0.01 μM): ++
- P 24 ([3]; 0.01 μM): 13810 pg/mL and 18710 pg/mL
- syncitia formed, Day 4 ([3]; 0.05 μM): −
- syncitia formed, Day 5 ([3]; 0.05 μM): (+)
- syncitia formed, Day 6 ([3]; 0.05 μM): ++
- syncitia formed, Day 7 ([3]; 0.05 μM): ++
- syncitia formed, Day 4 ([3]; 0.1 μM): −
- syncitia formed, Day 5 ([3]; 0.1 μM): (+)
- syncitia formed, Day 6 ([3]; 0.1 μM): ++
- syncitia formed, Day 7 ([3]; 0.1 μM): ++
- P 24 ([3]; 0.1 μM): 5600 pg/mL and 6400 pg/mL
- syncitia formed, Day 4 ([3]; 0.5 μM): −
- syncitia formed, Day 5 ([3]; 0.5 μM): −
- syncitia formed, Day 6 ([3]; 0.5 μM): +
- syncitia formed, Day 7 ([3]; 0.5 μM): ++
- syncitia formed, Day 4 ([3]; 1 μM): −
- syncitia formed, Day 5 ([3]; 1 μM): −
- syncitia formed, Day 6 ([3]; 1 μM): −
- syncitia formed, Day 7 ([3]; 1 μM): +
- P 24 ([3]; 1 μM): 2000 pg/mL and 2403 pg/mL
- syncitia formed, Day 4 ([3]; 5 μM): −
- syncitia formed, Day 5 ([3]; 5 μM): −
- syncitia formed, Day 6 ([3]; 5 μM): −
- syncitia formed, Day 7 ([3]; 5 μM): − and (+)
- IC50 ([3]; HIV 1 NDK, Table 10): > 5000 nM
- IC100 ([3]; HIV 1 NDK, Table 10): 5 µM
